# Test system: non-growing UPEC CFT073
# Experiment: Time-dependent effects of drug treatment on regrowth, UPEC
# Format: cell-based, Escherichia coli
# Conditions: E. coli, 10 µM, OD600 6 h after dilution
# Description: For screening and concentration-dependent characterization of the hit compounds, we used a 24-h incubation to capture their effects, although the actual onset of their activity may occur much sooner. To assess the speed of action, we treated stationary-phase cultures of three organisms with compounds that had previously shown a strong regrowth delay at 10 µM. We selected compounds that, in earlier tests, strongly delayed regrowth, such that diluted cultures remained below an OD600 of 0.12 (indicating no growth) after 6 h for UPEC or 8 h for P. aeruginosa and S. aureus in drug-free medium.
# We collected samples at different times during the 24-h incubation, diluted them 2500-fold, and measured the OD600 after 6 or 8 h of further incubation, respectively. […] Rifampicin acts quickly against non-growing S. aureus, while the effects of the other compounds increase gradually during incubation but are already apparent within the first hour of treatment.
# Bacteria were cultivated in 1:4 diluted CA-MHB (40 mM HEPES, pH 7.4) for 24 h. Aliquots were dispensed into a 96-well plate, and compounds were added at a 10 µM concentration. […] The OD600 of the samples was measured to assess regrowth using a microplate reader (BioTek Synergy H1) after 6 h for UPEC and 8 h for P. aeruginosa and S. aureus. […]
structure (smiles),measurement,value
C[C@H]1NCc2cc(-c3ccc4c(=O)c(C(=O)O)cn(C5CC5)c4c3OC(F)F)ccc21 [Garenoxacin],speed of action: regrowth delay over treatment time,act more slowly

# Source: publication PMC11992225, “Antibacterial compounds against non-growing and intracellular bacteria” (npj Antimicrobials and Resistance, 2025)
